Common to all, as to type: cell-based
The subject of one assay is E. coli. Nature of the assay: Rapid Agar Plate Assay (RAPA). The following applies: vs tap water washed plates. Here is the method: (§1) The compound of Formula (II) was mixed with a base bar soap chip and tested for any residual antibacterial activity against S. aureus and E. coli by a rapid agar plate assay (RAPA). Briefly, the method involves washing TSA plates with the soap samples for 10 seconds, lathering for another 40 seconds and finally rinsing for 10 seconds. After air drying for 30 minutes, 100 μL of freshly prepared bacterial suspension (density was adjusted to 0.1 OD at 620 nm) was applied on the treated plates and then plates were incubated at 37° C. for about 18 hours. TSA plates washed with normal tap water were used as negative control. Next day, bacterial colonies were counted and converted to log 10 and the log reductions as a result of washing with samples were calculated.

A further assay concerns S. aureus. As to the kind of experiment: Rapid Agar Plate Assay (RAPA). As to conditions: for Log reduction in Bacterial Count: vs tap water washed plates. As to the method: as §1
In another assay the test system is bacterial suspension. As to the kind of experiment: Short Interval Kill Test (SIKT). As to the method:
SIKT determines the kill effect of the test article at a predetermined exposure time. […] Briefly, 1.2 mL of the compound of Formula (II)+PEG 300 was transferred into a sterile test tube, to which 0.2 mL of a freshly prepared bacterial suspension (OD adjusted to 0.1 at 620 nm) was added and gently mixed. The reaction was neutralized at the 1 minute or at the 5 minute point by adding a neutralizing broth. The reaction mixture was further diluted with letheen broth in 10-fold fashion and plated on MCA (Microbial Count Agar) plates for viable bacterial count.

Another assay concerns S. mutans. Nature of the assay: Minimum Inhibitory Concentration, oral pathogens. As to conditions: Streptococcus mutans, read-out: Minimum Inhibitory Concentration. The source says:
(§2) Table 1 (below) describes the antibacterial efficacy of an exemplary compound of the present invention against common oral pathogens, A. viscosus and S. mutans.

The next assay has as its system A. viscosus. Nature of the assay: Minimum Inhibitory Concentration, oral pathogens. As to conditions: Actinomyces viscosus, read-out: Minimum Inhibitory Concentration.
Description: as §2

In assay [1] the test system is Staphylococcus epidermidis (S. epidermidis). As to the kind of experiment: Zone of Inhibition Test (ZOI). The following applies: S. epiderm., 37° C. 18 hours. Here is the method:
(§3) The compound of Formula (II) was evaluated for its antibacterial efficacy against representative skin bacteria such as Staphylococcus aureus (S. aureus), Staphylococcus epidermidis (S. epidermidis), Corynebacterium minutissimum (C. minutissimum), Corynebacterium xerosis (C. xerosis) and Escherichia coli (E. coli). Zone of inhibition (ZOI), Minimum Inhibitory Concentration (MIC), and a Short Interval Kill Test (SIKT) were all performed, and the results are described in Tables 2-4 (below).
(§4) The compound of Formula (II) was dissolved in polyethylene glycol (PEG 300), or in 100% ethanol at 0.5% concentration. 20 μL of each solution was placed on separate filter disks and air dried for 20 minutes. After 20 minutes of drying, the coated disks were placed in the bacterial lawn and plates were incubated at 37° C. for 18 hours, followed by measurement of ZOI.

For assay [2], the system named is Corynebacterium xerosis (C. xerosis). As to the kind of experiment: Zone of Inhibition Test (ZOI). As to conditions: 37° C. 18 hours. Here is the method: as §3, §4
The subject of assay [3] is Corynebacterium minutissimum (C. minutissimum). As to the kind of experiment: Zone of Inhibition Test (ZOI). Here is the method:
as §3
(§5) 20 μL of each solution was placed on separate filter disks and air dried for 20 minutes. After 20 minutes of drying, the coated disks were placed in the bacterial lawn and plates were incubated at 37° C. for 18 hours, followed by measurement of ZOI.
(§6) The antibacterial efficacy of the compound of Formula (II) was measured in comparison to triclosan, using various tests. The results are provided below in Tables 5 and 6.

Assay [4] deals with Staphylococcus aureus (S. aureus). Nature of the assay: Zone of Inhibition Test (ZOI). As to the method:
as §3, §5, §6

Assay [5] relates to Staphylococcus epidermidis (S. epidermidis). Nature of the assay: Minimum Inhibitory Concentration (MIC), skin bacteria. As to conditions: for MIC: Staphylococcus epidermidis, read-out: Minimum Inhibitory Concentration. Here is the method:
as §3
(§7) MIC against four common skin pathogens was evaluated for the compound of Formula (II), using the following method: A two-fold dilution of the compound of Formula (II) was prepared in a 96 well plate and a constant amount of bacteria added in each well. After 18-24 hours of incubation, bacterial growth was measured by using a Spectrophotometric Micro-plate Reader and the MIC values were determined.

Assay [6] has as its system Corynebacterium xerosis (C. xerosis). Described as above. As to conditions: read-out: Minimum Inhibitory Concentration. As to the method: as §3, §7
The test system of assay [7] is Escherichia coli (E. coli). The description is as above. As to the method:
as §3, §7, §6

Assay [8] deals with Corynebacterium minutissimum (C. minutissimum). The assay is described as above. As to conditions: for MIC: Corynebacterium minutissimum, read-out: Minimum Inhibitory Concentration. Here is the method:
as §3, §7, §6

For assay [9], the system named is Staphylococcus aureus (S. aureus). The assay is described as above. The following applies: for MIC: Staphylococcus aureus, read-out: Minimum Inhibitory Concentration. As to the method:
as §3, §7, §6

Assay [10] concerns Escherichia coli (E. coli). Nature of the assay: Zone of Inhibition Test (ZOI). The following applies: Example 4. Here is the method: as §3, §4, §6
Where [11] appears, read: 0.5% in EtOH, 20 μL on filter disk.
[12] abbreviates: 0.5% in PEG 300, 20 μL on filter disk.
Setting [13] is: 0.5% in EtOH, 20 μL on filter disk, 37° C. 18 hours.
[14] abbreviates: 0.5% in PEG 300, 20 μL on filter disk, 37° C. 18 hours.

Converted amounts (≈) assume the structure as drawn. Read-outs that look alike come from different tables or passages of the source.

Regarding `O=C(Nc1ccc(Cl)cc1)Nc1ccc(Cl)c(Cl)c1` [TCC, reference compound], the “Log reduction in Bacterial Count” value came out at 0.167 log in the assay on E. coli (0.4% TCC bar) and 2.409 log with S. aureus (0.4% TCC bar). For the same compound, the “Short Interval Kill Test kill effect” value came to 56.54 in the assay on bacterial suspension (0.5%, exposure time 1 minute) and 74.11 in the assay with bacterial suspension (0.5%, exposure time 5 minute).
`C=CCc1ccc(O)c(-c2cc(CC=C)ccc2O)c1` [Magnolol, magnolol]: the MIC in the assay with S. mutans and with A. viscosus was 32 µg/mL (≈ 120 µM) each time.
As to `C=CCc1cc(Cl)c(O)c(-c2cc(CC=C)cc(Cl)c2O)c1` [Compound of Formula (II)], the “Log reduction in Bacterial Count” value is reported as 0.09 log with E. coli (0.5% in soap chip); 0.506 log in the assay on S. aureus (0.5% in soap chip); 0.5 log with S. aureus (0.5% in soap chip, listed as compound of Formula (II)). In addition, the “reduction in the growth” value in the assay on S. aureus (bar soap chip containing 0.5%) is on record as > 50%. For the same compound, the “Zone of Inhibition” value in [1] (setting [11]) turned out to be 15 mm; in [1] (setting [12]) it was 16 mm; in assay [2] (setting [11]), 14 mm; in assay [2] (setting [12]) it was 15 mm; in [3] (setting [13]), 17 mm; in [3] (setting [14]) it was 21 mm. The “Zone of Inhibition” value in assay [3] (0.5%, Example 4) is 22 mm; in assay [4] (setting [13]) it was 13 mm; in [4] (setting [14]) it was 15 mm; in assay [4] (0.5%, Example 4) it was 20 mm; in assay [10] (0.5%), 0 mm. In addition, the MIC in the assay on S. mutans (S. mutans) is 0.5 to 1 µg/mL; in the assay on A. viscosus (A. viscosus), 0.5 to 1 µg/mL; in assay [5] (S. epiderm., + PEG 300, 18-24 hours incubation) it was 39 µg/mL; in assay [6] (C. xerosis, + EtOH, 18-24 hours incubation), 156 µg/mL; in assay [6] (C. xerosis, + PEG 300, 18-24 hours incubation), 78 µg/mL; in assay [7] (E. coli, 0.5% active, Example 4, read-out: Minimum Inhibitory Concentration), 1250 µg/mL. For the same compound, the MIC in [8] (C. minutissimum, 0.5% active, Example 4) was determined as 9.7 µg/mL; in assay [8] (C. minutissimum, + EtOH, 18-24 hours incubation) it was 39 µg/mL; in assay [8] (C. minutissimum, + PEG 300, 18-24 hours incubation) it was 9.77 µg/mL; in assay [9] (S. aureus, 0.5% active, Example 4), 2.44 µg/mL; in assay [9] (S. aureus, + EtOH, 18-24 hours incubation), 39 µg/mL; in assay [9] (S. aureus, + PEG 300, 18-24 hours incubation) it was 19.5 µg/mL. For the same compound, the “Minimum Inhibitory Concentration” value in [5] (S. epiderm., + EtOH, 18-24 hours incubation) was found to be 39 ppm. The “Short Interval Kill Test kill effect” value with bacterial suspension (0.5% + PEG 300, exposure time 1 minute) is listed as 65.18; in the assay with bacterial suspension (0.5% + PEG 300, exposure time 5 minute), 87.37.
As for `Oc1cc(Cl)ccc1Oc1ccc(Cl)cc1Cl` [Triclosan, 5-chloro-2-(2,4-dichlorophenoxy)phenol, reference compound], the “Log reduction in Bacterial Count” value in the assay with E. coli (0.25% Triclosan bar) is 2.387 log; in the assay with S. aureus (0.25% Triclosan bar) it was 2.409 log. In addition, the “Zone of Inhibition” value in assay [3] (0.15%, Example 4) turned out to be 21 mm; in [4] (0.15%, Example 4), 50 mm; in assay [10] (0.15%), 40 mm. The MIC is 1 to 2 µg/mL (≈ 3.45 to 6.91 µM) in the assay with S. mutans; 1 to 2 µg/mL (≈ 3.45 to 6.91 µM) in the assay on A. viscosus; < 2.44 µg/mL in [5]; 9.76 µg/mL (≈ 33.7 µM) in [6]; < 2.44 µg/mL in [7] (read-out: Minimum Inhibitory Concentration); 4.88 µg/mL (≈ 16.9 µM) in assay [8]. Besides, the MIC in assay [9] was < 2.44 µg/mL. Besides, the “Minimum Inhibitory Concentration” value in assay [8] (C. minutissimum, 0.15% active, Example 4) was 4.88 ppm; in assay [9] (S. aureus, 0.15% active, Example 4), <2.44 ppm.

(Values after US9334212B2, “Compounds and compositions” (Colgate-Palmolive Company, priority 2010, dated 2016).)
